Reference: US5114937A, “Renin inhibiting nonpeptides” (Warner-Lambert Company, priority 1989, dated 1992)

Biological target: T1, renin (Homo sapiens, UniProt P00797)
T1 sequence (P00797 67-406): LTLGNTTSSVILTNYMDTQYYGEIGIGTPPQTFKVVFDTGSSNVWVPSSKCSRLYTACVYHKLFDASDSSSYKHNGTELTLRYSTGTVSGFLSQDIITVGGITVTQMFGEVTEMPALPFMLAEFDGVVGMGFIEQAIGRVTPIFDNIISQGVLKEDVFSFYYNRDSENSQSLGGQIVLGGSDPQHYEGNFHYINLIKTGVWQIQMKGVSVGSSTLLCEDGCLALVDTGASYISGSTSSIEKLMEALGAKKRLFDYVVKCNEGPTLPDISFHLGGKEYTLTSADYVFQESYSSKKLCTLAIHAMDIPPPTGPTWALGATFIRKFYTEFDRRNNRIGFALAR
Experiment: in vitro renin inhibitory activity, radioimmunoassay for angiotensin I
Format: biochemical
Conditions: for In Vitro Activity, percent inhibition: 2 hours at 37°; for IC50: renin incubated 2 hours at 37° with angiotensinogen, values marked * = IC50, read-out: In Vitro Activity, IC50 (molar concentration causing a 50% inhibition of the renin activity)
Procedure: The effectiveness of the aforementioned compounds is determined by a test for in vitro renin inhibitory activity. This activity is determined by a standard radioimmunoassay for angiotensin I. ln this assay the enzyme, renin, incubated for 2 hours at 37° in the presence of a substrate, angiotensinogen, generates the product, angiotensin I. Test compounds are added to the incubation mixture. Relative activity is reported as the percent inhibition at the specified molar concentration or as the IC50, which is the molar concentration of test compound causing a 50% inhibition of the renin activity.

[1] = @ 10^-6 (molar; also 1 × 10^-6)

With `CC(C)C[C@H](O)[C@H](O)[C@H](CC1CCCCC1)NC(=O)CC1OC1[C@H](Cc1ccccc1)NC(=O)OC(C)(C)C` (stereo partly drawn) the “In Vitro Activity, percent inhibition” value (@ 1 × 10^-8 (molar)) was 21%.
`CC(C)C[C@H](O)[C@H](O)[C@H](CC1CCCCC1)NC(=O)CCC(O)[C@H](Cc1ccccc1)NC(=O)OC(C)(C)C` (mixture of isomers) [BOCPHE.psi.[CHOHCH2 ]GLYCAD (Mixture of Diastereomers), BOC-PHE.PSI.[CHOHCH2 ]GLY-CAD (Mixture of Diastereomers)] showed an IC50 of 30 nM.
Molecule `CC(C)C[C@H](O)[C@H](O)[C@H](CC1CCCCC1)NC(=O)CCC(O)[C@H](Cc1ccccc1)NC(=O)OCc1ccccc1` (mixture of isomers) [ZPHE.psi.[CHOHCH2 ]GLYCAD (Mixture of Diastereomers), Z-PHE.PSI.[CHOHCH2 ]GLY-CAD (Mixture of Diastereomers)] has an IC50 of 240 nM.
In the case of `CC(C)C[C@H](O)[C@H](O)[C@H](CC1CCCCC1)NC(=O)CCC(O)[C@H](Cc1ccccc1)NC(=O)OC(C)(C)C` (single isomer, unassigned) [BOCPHE.psi.[CHOHCH2 ]GLYCAD (Slow Eluting Diastereomer), BOC-PHE.PSI.[CHOHCH2 ]GLY-CAD (Slow Isomer)], the IC50 is reported as 15 nM.
`CC(C)C[C@H](O)[C@H](O)[C@H](CC1CCCCC1)NC(=O)CCC(O)[C@H](Cc1ccccc1)NS(=O)(=O)N1CCOCC1` (single isomer, unassigned) [SMOPHE.psi.[CHOHCH2 ]GLYCAD (Isomer A), SMO-PHE.PSI.[CHOHCH2 ]GLY-CAD (Isomer A)] was tested, and the IC50 was 2.3 nM.
In the case of `CC(C)C[C@H](O)[C@H](O)[C@H](CC1CCCCC1)NC(=O)CCC(O)[C@H](Cc1ccccc1)NS(=O)(=O)N1CCOCC1` (single isomer, unassigned) [SMOPHE.psi.[CHOHCH2 ]GLYCAD (Isomer B), SMO-PHE.PSI.[CHOHCH2 ]GLY-CAD (Isomer B)], the IC50 is reported as 17 nM.
`CC(C)C[C@H](O)[C@H](O)[C@H](CC1CCCCC1)NC(=O)CCC(O)[C@H](Cc1ccccc1)NC(=O)OCc1ccccc1` (single isomer, unassigned) [ZPHE.psi.[CHOHCH2 ]GLYCAD (Slow Eluting Diastereomer), Z-PHE.PSI.[CHOHCH2 ]GLY-CAD (Slow Isomer)] was tested, and the IC50 was 200 nM.
In the case of `CC(C)C[C@H](O)[C@H](O)[C@H](CC1CCCCC1)NC(=O)C(N)CC(O)[C@H](Cc1ccccc1)NC(=O)OC(C)(C)C` (single isomer, unassigned) [drawing 42, BOC-PHE.PSI.[CHOHCH2 ]CH(NH2)CO-CAD], the “In Vitro Activity, percent inhibition” value [1] is reported as 45%.
In the case of `CC(C)C[C@H](O)[C@H](O)[C@H](CC1CCCCC1)NC(=O)C(N)CC(O)[C@H](Cc1ccccc1)NC(=O)OC(C)(C)C` (single isomer, unassigned) [drawing 43, BOC-PHE.PSI.[CHOHCH2 ]CH(NH2)CO-CAD], the “In Vitro Activity, percent inhibition” value [1] is reported as 26%.
For `CC(C)C[C@H](O)[C@H](O)[C@H](CC1CCCCC1)NC(=O)C/C=C/[C@H](Cc1ccccc1)NC(=O)OC(C)(C)C` [BOCPHE.psi.[CHCH]GLYCAD, BOC-PHE.PSI.[E-CH=CH]GLY-CAD], the “In Vitro Activity, percent inhibition” value (@ 3 × 10^-8 (molar)) was 1%.
In the case of `CC(C)C[C@H](O)[C@H](O)[C@H](CC1CCCCC1)NC(=O)CCC(O)[C@@H](N)Cc1ccccc1` (stereo partly drawn) [PHE.psi.[CHOHCH2 ]GLYCAD], the “In Vitro Activity, percent inhibition” value [1] is reported as 28%.
`CC(C)C[C@H](O)[C@H](O)[C@H](CC1CCCCC1)NC(=O)CNC[C@H](Cc1ccccc1)NS(=O)(=O)N1CCOCC1` [SMOPHE.psi.[CH2 NH]GLYCAD, SMO-PHE.PSI.[CH2 NH]GLY-CAD] showed an IC50 of 2600 nM.
Molecule `CC(C)C[C@H](O)[C@H](O)[C@H](CC1CCCCC1)NC(=O)C=CC(O)[C@H](Cc1ccccc1)NS(=O)(=O)N1CCOCC1` (stereo partly drawn) [SMOPHE.psi.[CHOHCHCHCO]CAD, SMO-PHE.PSI.[CHOHCH=CHCO]CAD] has an IC50 of 25 nM.
Molecule `CC(C)C[C@H](O)[C@H](O)[C@H](CC1CCCCC1)NC(=O)CCC(=O)[C@H](Cc1ccccc1)NS(=O)(=O)N1CCOCC1` [SMOPHE.psi.[COCH2 ]GLYCAD, SMO-PHE.PSI.[COCH2]GLY-CAD] has an IC50 of 87 nM.
`CC(C)C[C@H](O)[C@H](O)[C@H](CC1CCCCC1)NC(=O)CCC(=O)[C@H](Cc1ccccc1)NC(=O)OCc1ccccc1` [ZPHE.psi.[COCH2 ]GLYCAD, Z-PHE.PSI.[COCH2]GLY-CAD] was tested, and the “In Vitro Activity, percent inhibition” value (@ 1 × 10^-8 (molar)) was 1%.
